Patent US20230132823A1, “BI-FUNCTIONAL COMPOUNDS AND METHODS FOR TARGETED UBIQUITINATION OF ANDROGEN RECEPTOR” (MONTELINO THERAPEUTICS, INC., priority 2020, published 2023)
Structures can show the parent of a compound that is named as a salt. Where a SMILES comes first, the peptide text is derived from it. [ ]: non-standard residue; d: D form. The star is where a group is joined. X4 = O=C(COc1c(-c2csc(N3CCOCC3)n2)ccc(F)c1F)NCCCCN*; X3 = O=C(NCCCCCCN*)c1cccc2sc(N3CCOCC3)nc12; Dip = N[C@H](C(=O)O)C(c1ccccc1)c1ccccc1; Chg = N[C@H](C(=O)O)C1CCCCC1; NMeA = CN[C@@H](C)C(=O)O

What follows are compounds tested on 22Rv1 (assay: 22Rv1 cell proliferation assay (Experimental Example 1, cell count)). Conditions: Homo sapiens, 22Rv1, read-out: 22Rv1 cell count decrease at 10 μM for 48 hours.
Type: cell-based
Protocol: The human prostate cancer cell line, 22Rv1 has been reported to express a high level of AR-V7. […] Standard culture media was RPMI-1640 supplemented with 10% fetal bovine serum. The test compound initially was dissolved in DMSO at 50 mM. This stock solution was then diluted as needed for the indicated concentrations. […]
In the Table: (+)—the cell count decreased between 0 and 20%; (++)—the cell count decreased […]; (+++)—the cell count decreased by more than 50%.

| Compound | inhibition at 10 µM [%] |
| --- | --- |
| CN[C@@H](C)C(=O)N[C@H](C(=O)N1CCC[C@H]1C(=O)N[C@H](C(=O)NCCCCNC(=O)COc1c(-c2csc(N3CCOCC3)n2)ccc(F)c1F)C(c1ccccc1)c1ccccc1)C1CCCCC1 [Example 25, (S)-1-((S)-2-cyclohexyl-2-((S)-2-(methylamino)propanamido)acetyl)-N-((S)-1-((4-(2-(2,3-difluoro-6-(2-morpholinothiazol-4-yl)phenoxy)acetamido)butyl)amino)-1-oxo-3,3-diphenylpropan-2-yl)pyrrolidine-2-carboxamide] (H-[NMeA][Chg]P[Dip]-X4) | > 50 |
| CN[C@@H](C)C(=O)N[C@H](C(=O)N1CCC[C@H]1C(=O)N[C@H](C(=O)NCCCCCCNC(=O)c1cccc2sc(N3CCOCC3)nc12)C(c1ccccc1)c1ccccc1)C1CCCCC1 [Example 31, N-(6-((S)-2-((S)-1-((S)-2-cyclohexyl-2-((S)-2-(methylamino)propanamido)acetyl)pyrrolidine-2-carboxamido)-3,3-diphenylpropanamido)hexyl)-2-morpholinobenzo[d]thiazole-4-carboxamide] (H-[NMeA][Chg]P[Dip]-X3) | > 50 |

Same assay, conditions: Homo sapiens, 22Rv1, read-out: 22Rv1 cell count decrease at 10 μM for 48 hours; 10 μM (method: four days); read-out: 22Rv1 cell count decrease at 10 μM

| Compound | inhibition at 10 µM [%] |
| --- | --- |
| O=C(COc1c(-c2csc(N3CCOCC3)n2)ccc(F)c1F)NCCCCCCNc1cccc2c1C(=O)N(C1CCC(=O)NC1=O)C2=O (stereo not shown) [Example 1, 2-(2,3-difluoro-6-(2-morpholinothiazol-4-yl)phenoxy)-N-(6-((2-(2,6-dioxopiperidin-3-yl)-1,3-dioxoisoindolin-4-yl)amino)hexyl)acetamide] | < 50 |
| O=C(COc1c(-c2csc(N3CCOCC3)n2)ccc(F)c1F)NCCCCCCCCCCNc1cccc2c1C(=O)N(C1CCC(=O)NC1=O)C2=O (stereo not shown) [Example 3, 2-(2,3-difluoro-6-(2-morpholinothiazol-4-yl)phenoxy)-N-(10-((2-(2,6-dioxopiperidin-3-yl)-1,3-dioxoisoindolin-4-yl)amino)decyl)acetamide] | < 50 |
| COc1cc(C(=O)NCCOCCOCCOc2c(-c3csc(N4CCOCC4)n3)ccc(F)c2F)ccc1NC(=O)[C@@H]1N[C@@H](CC(C)(C)C)[C@](C#N)(c2ccc(Cl)cc2F)[C@H]1c1cccc(Cl)c1F [Example 27, (2R,3S,4R,5S)-3-(3-chloro-2-fluorophenyl)-4-(4-chloro-2-fluorophenyl)-4-cyano-N-(4-((2-(2-(2-(2,3-difluoro-6-(2-morpholinothiazol-4-yl)phenoxy)ethoxy)ethoxy)ethyl)carbamoyl)-2-methoxyphenyl)-5-neopentylpyrrolidine-2-carboxamide] | > 50 |
| COc1cc(C(=O)NCCCCNC(=O)COc2c(-c3csc(N4CCOCC4)n3)ccc(F)c2F)ccc1NC(=O)[C@@H]1N[C@@H](CC(C)(C)C)[C@](C#N)(c2ccc(Cl)cc2F)[C@H]1c1cccc(Cl)c1F [Example 28, (2R,3S,4R,5S)-3-(3-chloro-2-fluorophenyl)-4-(4-chloro-2-fluorophenyl)-4-cyano-N-(4-((4-(2-(2,3-difluoro-6-(2-morpholinothiazol-4-yl)phenoxy)acetamido)butyl)carbamoyl)-2-methoxyphenyl)-5-neopentylpyrrolidine-2-carboxamide] | > 50 |
| COc1cc(C(=O)NCCCCCCNC(=O)COc2c(-c3csc(N4CCOCC4)n3)ccc(F)c2F)ccc1NC(=O)[C@@H]1N[C@@H](CC(C)(C)C)[C@](C#N)(c2ccc(Cl)cc2F)[C@H]1c1cccc(Cl)c1F [Example 29, (2R,3S,4R,5S)-3-(3-chloro-2-fluorophenyl)-4-(4-chloro-2-fluorophenyl)-4-cyano-N-(4-((6-(2-(2,3-difluoro-6-(2-morpholinothiazol-4-yl)phenoxy)acetamido)hexyl)carbamoyl)-2-methoxyphenyl)-5-neopentylpyrrolidine-2-carboxamide] | < 50 |
| Cc1ncsc1-c1ccc([C@H](C)NC(=O)[C@@H]2C[C@@H](O)CN2C(=O)[C@@H](NC(=O)CCCCNC(=O)c2cccc3sc(N4CCOCC4)nc23)C(C)(C)C)cc1 [Example 30, N-(5-(((S)-1-((2S,4R)-4-hydroxy-2-(((S)-1-(4-(4-methylthiazol-5-yl)phenyl)ethyl)carbamoyl)pyrrolidin-1-yl)-3,3-dimethyl-1-oxobutan-2-yl)amino)-5-oxopentyl)-2-morpholinobenzo[d]thiazole-4-carboxamide] | < 50 |
| O=C1CCC(N2C(=O)c3cccc(NCCCCCCNC(=O)c4nc(Br)n(-c5csc(N6CCOCC6)n5)c4Br)c3C2=O)C(=O)N1 (stereo not shown) [Example 33, 2,5-dibromo-N-(6-((2-(2,6-dioxopiperidin-3-yl)-1,3-dioxoisoindolin-4-yl)amino)hexyl)-1-(2-morpholinothiazol-4-yl)-1H-imidazole-4-carboxamide] | 0 to 20 |
| CN[C@@H](C)C(=O)N[C@H](C(=O)N1Cc2cc(OCCOCCOCCOc3c(-c4csc(N5CCOCC5)n4)ccc(F)c3F)ccc2C[C@H]1C(=O)N[C@@H]1CCCc2ccccc21)C(C)(C)C [Example 36, (S)-7-(2-(2-(2-(2,3-difluoro-6-(2-morpholinothiazol-4-yl)phenoxy)ethoxy)ethoxy)ethoxy)-2-((S)-3,3-dimethyl-2-((S)-2-(methylamino)propanamido)butanoyl)-N-((R)-1,2,3,4-tetrahydronaphthalen-1-yl)-1,2,3,4-tetrahydroisoquinoline-3-carboxamide dihydrochloride] | > 50 |

What follows are compounds tested on 22Rv1-Enz^R (assay: 22Rv1-Enz^R cell proliferation assay, GIC50 (Experimental Example 4)). Conditions: Homo sapiens; 6-day culture, cell media changed every 24 hours.
Type: cell-based
Protocol: Selected compounds were tested in the human prostate cancer cell line, 22Rv1-Enz^R as described in Geun Taek Lee et al., Molecular Cancer Therapeutics, 20:490-9 (2021). These procedures are similar to that described in Experimental Example 1, above, except that the assay conditions are a 6-day culture with cell media changed every 24 hours.
In the Table: (+)—GIC50<20 μM; (++)—GIC50<10 μM; (+++)—GIC50<1 μM.

| Compound | IC50 [µM] |
| --- | --- |
| O=C(COc1c(-c2csc(N3CCOCC3)n2)ccc(F)c1F)NCCCCCCNc1cccc2c1C(=O)N(C1CCC(=O)NC1=O)C2=O (stereo not shown) [Example 1, 2-(2,3-difluoro-6-(2-morpholinothiazol-4-yl)phenoxy)-N-(6-((2-(2,6-dioxopiperidin-3-yl)-1,3-dioxoisoindolin-4-yl)amino)hexyl)acetamide] | < 20 |
| O=C(COc1c(-c2csc(N3CCOCC3)n2)ccc(F)c1F)NCCCCCCCCCCNc1cccc2c1C(=O)N(C1CCC(=O)NC1=O)C2=O (stereo not shown) [Example 3, 2-(2,3-difluoro-6-(2-morpholinothiazol-4-yl)phenoxy)-N-(10-((2-(2,6-dioxopiperidin-3-yl)-1,3-dioxoisoindolin-4-yl)amino)decyl)acetamide] | < 20 |
| Cc1ccc(-c2csc(N3CCOCC3)n2)c(OCC(=O)NCCCCC(=O)N[C@H](C(=O)N2C[C@H](O)C[C@H]2C(=O)N[C@@H](C)c2ccc(-c3scnc3C)cc2)C(C)(C)C)c1C [Example 37, (2S,4R)-1-((S)-2-(5-(2-(2,3-dimethyl-6-(2-morpholinothiazol-4-yl)phenoxy)acetamido)pentanamido)-3,3-dimethylbutanoyl)-4-hydroxy-N-((S)-1-(4-(4-methylthiazol-5-yl)phenyl)ethyl)pyrrolidine-2-carboxamide] | < 1 |
| Cc1ncsc1-c1ccc([C@H](C)NC(=O)[C@@H]2C[C@@H](O)CN2C(=O)[C@@H](NC(=O)CCC(=O)NCCCOc2c(-c3csc(N4CCOCC4)n3)ccc(F)c2F)C(C)(C)C)cc1 [Example 38, N^1-(3-(2,3-difluoro-6-(2-morpholinothiazol-4-yl)phenoxy)propyl)-N^4-((S)-1-((2S,4R)-4-hydroxy-2-(((S)-1-(4-(4-methylthiazol-5-yl)phenyl)ethyl)carbamoyl)pyrrolidin-1-yl)-3,3-dimethyl-1-oxobutan-2-yl)succinamide] | < 20 |
| Cc1ncsc1-c1ccc([C@H](C)NC(=O)[C@@H]2C[C@@H](O)CN2C(=O)[C@@H](NC(=O)CCC(=O)NCCOCCOc2c(-c3csc(N4CCOCC4)n3)ccc(F)c2F)C(C)(C)C)cc1 [Example 39, N^1-(2-(2-(2,3-difluoro-6-(2-morpholinothiazol-4-yl)phenoxy)ethoxy)ethyl)-N^4-((S)-1-((2S,4R)-4-hydroxy-2-(((S)-1-(4-(4-methylthiazol-5-yl)phenyl)ethyl)carbamoyl)pyrrolidin-1-yl)-3,3-dimethyl-1-oxobutan-2-yl)succinamide] | < 20 |
| Cc1ncsc1-c1ccc([C@H](C)NC(=O)[C@@H]2C[C@@H](O)CN2C(=O)[C@@H](NC(=O)CNCCOCCOc2c(-c3csc(N4CCOCC4)n3)ccc(F)c2F)C(C)(C)C)cc1 [Example 40, (2S,4R)-1-((S)-2-(2-((2-(2-(2,3-difluoro-6-(2-morpholinothiazol-4-yl)phenoxy)ethoxy)ethyl)amino)acetamido)-3,3-dimethylbutanoyl)-4-hydroxy-N-((S)-1-(4-(4-methylthiazol-5-yl)phenyl)ethyl)pyrrolidine-2-carboxamide] | < 1 |
| Cc1ncsc1-c1ccc([C@H](C)NC(=O)[C@@H]2C[C@@H](O)CN2C(=O)[C@@H](NC(=O)CCCCOc2c(-c3csc(N4CCOCC4)n3)ccc(F)c2F)C(C)(C)C)cc1 [Example 41, (2S,4R)-1-((S)-2-(5-(2,3-difluoro-6-(2-morpholinothiazol-4-yl)phenoxy)pentanamido)-3,3-dimethylbutanoyl)-4-hydroxy-N-((S)-1-(4-(4-methylthiazol-5-yl)phenyl)ethyl)pyrrolidine-2-carboxamide] | < 10 |
| Cc1ncsc1-c1ccc([C@H](C)NC(=O)[C@@H]2C[C@@H](O)CN2C(=O)[C@@H](NC(=O)CCCCOc2c(F)ccc3sc(N4CCOCC4)nc23)C(C)(C)C)cc1 [Example 42, (2S,4R)-1-((S)-2-(5-((5-fluoro-2-morpholinobenzo[d]thiazol-4-yl)oxy)pentanamido)-3,3-dimethylbutanoyl)-4-hydroxy-N-((S)-1-(4-(4-methylthiazol-5-yl)phenyl)ethyl)pyrrolidine-2-carboxamide] | < 10 |
| Cc1ncsc1-c1ccc([C@H](C)NC(=O)[C@@H]2C[C@@H](O)CN2C(=O)[C@@H](NC(=O)CCCCCCOc2c(F)ccc3sc(N4CCOCC4)nc23)C(C)(C)C)cc1 [Example 43, (2S,4R)-1-((S)-2-(7-((5-fluoro-2-morpholinobenzo[d]thiazol-4-yl)oxy)heptanamido)-3,3-dimethylbutanoyl)-4-hydroxy-N-((S)-1-(4-(4-methylthiazol-5-yl)phenyl)ethyl)pyrrolidine-2-carboxamide] | < 20 |
